Test results as given in patent US20100016382A1, “PHARMACEUTICAL COMPOSITION” (TAKEDA PHARMACEUTICAL COMPANY LIMITED, priority 2006, published 2010).
Converted amounts (≈) assume the structure as drawn.

Experiment: physchem
Assay type: physicochemical
Details: 20 °C, water
Description: Compound A is 2-ethoxy-1-{[2′-(5-oxo-4,5-dihydro-1,2,4-oxadiazol-3-yl)biphenyl-4-yl]methyl}-1H-benzimidazole-7-carboxylic acid (melting point: 191° C., solubility in water at 20° C. of about 0.006 g/L). In the following Examples and Reference Examples, the Japanese Pharmacopoeia 14th Edition or Japanese Pharmaceutical Excipients 2003 compatible products were used as the preparation additives. Of the preparation additives, while magnesium stearate is also the Japanese Pharmacopoeia 14th Edition compatible product, like other preparation additives, it particularly has a stearic acid content ratio of not less than about 90% (Taihei Chemical Industrial Co., Ltd.).

solubility: ~6 µg/mL (≈ 13.1 µM)
SMILES: CCOc1nc2cccc(C(=O)O)c2n1Cc1ccc(-c2ccccc2-c2noc(=O)[nH]2)cc1 [Compound A, 2-ethoxy-1-{[2′-(5-oxo-4,5-dihydro-1,2,4-oxadiazol-3-yl)biphenyl-4-yl]methyl}-1H-benzimidazole-7-carboxylic acid]
